≈ marks a conversion by molar mass, not a printed value. Like-named read-outs stand apart in the source and are kept apart here.
Assays:
Format in all cases: cell-based
fungi = experiment: antifungal activity stated in words
T. rubrum = experiment: antifungal screening test of analogs, T. rubrum (TR); conditions: for IC (25-75%): read-out: Partial inhibition
Description: (§1) The analog compounds were tested for their activity against C. albicans, C. neoformans, A. fumigatus and T. rubrum. Partial inhibition of the fungus of between 25 to 75% was measured along with the total inhibition (MIC) by these anolog compounds. A description of the partial inhibition measurement can be found in R. L. Stiller, et al The Journal of Infectious Diseases, 147, No. 6 (1983). The structure of these analog compounds is as follows. [drawing 15] wherein R is the group identified in table 2.

A. fumigatus = experiment: antifungal screening test of analogs, A. fumigatus (AF); conditions: for IC (25-75%): read-out: Partial inhibition
Description: as §1

C. neoformans = experiment: antifungal screening test of analogs, C. neoformans (CN); conditions: for IC (25-75%): read-out: Partial inhibition
Description: as §1

C. albicans = experiment: antifungal screening test of analogs, C. albicans (CA); conditions: for IC (25-75%): read-out: Partial inhibition
Description: as §1

Row | Compound | MIC (T. rubrum; Trichophyton rubrum) [µg/mL] | IC (25-75%) (T. rubrum; Trichophyton rubrum) [µg/mL] | MIC (A. fumigatus; Aspergillus fumigatus) [µg/mL] | IC (25-75%) (A. fumigatus; Aspergillus fumigatus) [µg/mL] | MIC (C. neoformans; Cryptococcus neoformans) [µg/mL] | IC (25-75%) (C. neoformans; Cryptococcus neoformans) [µg/mL] | MIC (C. albicans; Candida albicans) [µg/mL] | other results
1 | C[N+](C)(C)CCOP(=O)([O-])OCCCCCCCCCCCCCCCCCCCCCCOP(=O)([O-])OCC[N+](C)(C)C [1,22-docosandiol bisphosphocholine ester] |  |  |  |  |  |  |  | antifungal activity (fungi): one of the most active antifungal compounds
2 | CCCCCCCCCCCCCCCC(=O)O[C@H](COC1O[C@H](CO)[C@@H](O)[C@H](O)[C@H]1O)COP(=O)([O-])OCC[N+](C)(C)C (some centres unmarked) [2-palmitoyl-1-O-glucopyranosyllysolecithin] |  |  |  |  |  |  |  | antifungal activity (fungi): relatively active antifungal agent similar in activity to L-a-Lysophosphatidyl inositol
3 | CCCCCCCCCC(=O)OC[C@@H](O)COP(=O)([O-])OCC[N+](C)(C)C [L-a-Lysophosphatidylcholine Decanoyl (C:10)] | > 500 | > 500 | > 500 | > 500 | 500 (≈ 1220 µM) | 250 | > 500 | IC (25-75%) (C. albicans; Candida albicans): 250 µg/mL
4 | CCCCCCCCCCCCCCCCC(=O)OC[C@@H](O)COP(=O)([O-])OCC[N+](C)(C)C [L-a-Lysophosphatidylcholine Heptadecanoyl (C17:0)] |  |  |  |  |  |  |  | IC (25-75%) (T. rubrum; Trichophyton rubrum, TR, partial inhibition of between 25 to 75%): 31 µg/mL; MIC (T. rubrum; Trichophyton rubrum, TR, total inhibition, read-out: MIC): 63 µg/mL (≈ 124 µM); IC (25-75%) (A. fumigatus; Aspergillus fumigatus, AF, partial inhibition of between 25 to 75%): 31 µg/mL; MIC (A. fumigatus; Aspergillus fumigatus, AF, total inhibition, read-out: MIC): > 1000 µg/mL; MIC (C. neoformans; Cryptococcus neoformans, CN, total inhibition, read-out: MIC): 16 µg/mL (≈ 31.4 µM); IC (25-75%) (C. albicans; Candida albicans, CA, partial inhibition of between 25 to 75%): 16 µg/mL; MIC (C. albicans; Candida albicans, CA, total inhibition, read-out: MIC): 63 µg/mL (≈ 124 µM)
5 | CCCCCCCCCCCC(=O)OC[C@@H](O)COP(=O)([O-])OCC[N+](C)(C)C [L-a-Lysophosphatidylcholine Lauroyl (C12:0)] | 250 (≈ 569 µM) | 63 | 125 (≈ 284 µM) |  | 125 (≈ 284 µM) | 31 | 500 (≈ 1140 µM) | 
6 | CCCCCCCCCCCCCC(=O)OC[C@@H](O)COP(=O)([O-])OCC[N+](C)(C)C [L-a-Lysophosphatidylcholine Myristoyl (C14:0)] | 31 (≈ 66.3 µM) |  | 125 (≈ 267 µM) | 31 | 31 (≈ 66.3 µM) |  | 31 (≈ 66.3 µM) | 
7 | CCCCCCCC/C=C\CCCCCCCC(=O)OC[C@@H](O)COP(=O)([O-])OCC[N+](C)(C)C [L-a-Lysophosphatidylcholine Oleoyl (C18:1,[Cis]-9)] | 31 (≈ 59.4 µM) |  | 63 (≈ 121 µM) | 31 | 31 (≈ 59.4 µM) |  | 31 (≈ 59.4 µM) | 
8 | CCCCCCCCCCCCCCCC(=O)OC[C@@H](O)COP(=O)([O-])OCC[N+](C)(C)C [L-a-Lysophosphatidylcholine Palmitoyl (C16:0)] | 500 (≈ 1010 µM) | 63 | 63 (≈ 127 µM) | 31 | 31 (≈ 62.5 µM) |  | 31 (≈ 62.5 µM) | 
9 | CCCCCCCCCCCCCCCCCC(=O)OC[C@@H](O)COP(=O)([O-])OCC[N+](C)(C)C [L-a-Lysophosphatidylcholine Stearoyl (C18:0)] | > 250 | > 250 | > 250 | > 250 | > 250 | 31 | > 250 | IC (25-75%) (C. albicans; Candida albicans): > 250 µg/mL
10 | CCCCCCCC/C=C\CCCCCCCC(=O)OC[C@@H](O)COP(=O)(O)OCCN [L-a-Lysophosphatidylethanol Amine, Oleoyl (C18:1,[cis]-9)] | > 100 | > 100 | > 100 | > 100 | > 100 | 100 | > 100 | IC (25-75%) (C. albicans; Candida albicans): > 100 µg/mL
11 | L-a-Lysophosphatidyl inositol |  |  |  |  |  |  |  | Partial inhibition (T. rubrum; TR, partial inhibition of between 25 to 75%): > 100 µg/mL; MIC (T. rubrum; TR, total inhibition): > 100 µg/mL; MIC (A. fumigatus; AF, total inhibition): 100 µg/mL; Partial inhibition (C. neoformans; CN, partial inhibition of between 25 to 75%): 100 µg/mL; MIC (C. neoformans; CN, total inhibition): > 100 µg/mL; Partial inhibition (C. albicans; CA, partial inhibition of between 25 to 75%): > 100 µg/mL; MIC (C. albicans; CA, total inhibition): > 100 µg/mL
